Measurements taken from patent US20250002475A1 (EPICS THERAPEUTICS, priority 2023, published 2025).

Assays:
Caov-3 cells = assay: Caov-3 cellular viability assay (ATP-Lite, 72 h); type: cell-based; details: Homo sapiens, ATP-Lite luminescence, % viability relative to DMSO
Method in brief: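 10000 cells/well treated 72 h at 37 °C, 5% CO2, in RPMI-1640 with 10% FBS and 0.1% DMSO final. Viability by ATP-Lite One Step luminescence. Expressed as % of DMSO control, with IC50 from each compound's concentration-response curve.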

[1] = target: T1, recombinant METTL3/METTL14 complex (Homo sapiens, UniProt Q86U44); assay: METTL3/14 Scintillation Proximity Assay (SPA), RNA methyltransferase activity; type: biochemical; details: 5.31 nM METTL3/14 complex, 250 nM RNA substrate, 1 μM 3H-SAM, 90 min; for compounds marked * best of the two separated forms
T1 construct: purchased Active Motif 311970; host or cells: Sf9 cells
T1 sequence (Q86U44 whole entry): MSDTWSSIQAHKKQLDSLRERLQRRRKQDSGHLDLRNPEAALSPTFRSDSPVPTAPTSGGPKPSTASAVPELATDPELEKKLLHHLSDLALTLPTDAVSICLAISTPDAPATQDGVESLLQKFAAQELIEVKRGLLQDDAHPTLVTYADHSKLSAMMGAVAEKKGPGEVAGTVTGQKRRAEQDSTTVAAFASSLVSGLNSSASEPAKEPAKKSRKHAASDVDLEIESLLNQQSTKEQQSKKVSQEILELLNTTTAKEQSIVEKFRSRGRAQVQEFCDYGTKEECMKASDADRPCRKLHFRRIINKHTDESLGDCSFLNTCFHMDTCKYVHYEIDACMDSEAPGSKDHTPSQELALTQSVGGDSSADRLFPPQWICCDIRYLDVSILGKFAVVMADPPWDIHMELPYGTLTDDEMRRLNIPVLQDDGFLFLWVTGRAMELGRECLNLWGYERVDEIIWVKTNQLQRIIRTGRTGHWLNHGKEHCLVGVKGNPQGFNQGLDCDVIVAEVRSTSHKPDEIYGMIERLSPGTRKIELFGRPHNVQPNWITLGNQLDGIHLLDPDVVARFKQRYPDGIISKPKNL
T1 sequence (Q9HCE5 whole entry partner): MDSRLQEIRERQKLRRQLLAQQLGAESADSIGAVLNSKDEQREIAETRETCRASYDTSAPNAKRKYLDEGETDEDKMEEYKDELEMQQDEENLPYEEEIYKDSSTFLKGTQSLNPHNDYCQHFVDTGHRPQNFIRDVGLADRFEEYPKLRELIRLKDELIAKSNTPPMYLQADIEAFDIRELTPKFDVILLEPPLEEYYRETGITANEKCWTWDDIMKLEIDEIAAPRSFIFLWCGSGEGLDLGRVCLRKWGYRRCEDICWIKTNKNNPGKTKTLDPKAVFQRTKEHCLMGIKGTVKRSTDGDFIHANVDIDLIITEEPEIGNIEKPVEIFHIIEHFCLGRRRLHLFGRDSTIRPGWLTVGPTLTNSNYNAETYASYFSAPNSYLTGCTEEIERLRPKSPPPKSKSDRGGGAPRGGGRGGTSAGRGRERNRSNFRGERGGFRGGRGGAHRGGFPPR

Kasumi-1 cells = assay: Kasumi-1 cellular viability assay (ATP-Lite, 72 h); type: cell-based; details: Homo sapiens, ATP-Lite luminescence, % viability relative to DMSO
Method in brief: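 Kasumi-1 AML cells, 15000/well in RPMI-1640 with 10% FBS, were exposed to compound titrations (0.1% final DMSO) for 72 h at 37 °C, 5% CO2. ATP-Lite One Step luminescence gave % viability versus DMSO control, and IC50 came from the concentration-response.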

Structure (SMILES)	IC50 (Caov-3 cells) [nM]	IC50 [1] [nM]	IC50 (Kasumi-1 cells) [nM]
COc1cc(-c2cn(Cc3ccc(N4CCC[C@@H](NC5CCC5)C4)nn3)nn2)c2cn[nH]c2c1 [Compound 030, (R)-N-cyclobutyl-1-(6-((4-(6-methoxy-1H-indazol-4-yl)-1H-1,2,3-triazol-1-yl)methyl)pyridazin-3-yl)piperidin-3-amine]	500 to 5000	≤ 50	500 to 5000
COc1cc(-c2cn(Cc3ccc(N4CCC[C@@H](NCC(C)C)C4)nn3)nn2)c2cn[nH]c2c1 [Compound 031, (R)-N-isobutyl-1-(6-((4-(6-methoxy-1H-indazol-4-yl)-1H-1,2,3-triazol-1-yl)methyl)pyridazin-3-yl)piperidin-3-amine]	500 to 5000	≤ 50	500 to 5000
COc1cc(-c2cn(Cc3ccc(N4CCC[C@@H](NCC(C)(C)C)C4)nn3)nn2)c2cn[nH]c2c1 [Compound 032, (R)-1-(6-((4-(6-methoxy-1H-indazol-4-yl)-1H-1,2,3-triazol-1-yl)methyl)pyridazin-3-yl)-N-neopentylpiperidin-3-amine]	≤ 500	≤ 50	500 to 5000
COc1cc(-c2cn(Cc3nnc(N4CCCC(NCC5CCC5)C4)s3)nn2)c2cn[nH]c2c1 (stereo not drawn) [Compound 036, N-(cyclobutylmethyl)-1-(5-((4-(6-methoxy-1H-indazol-4-yl)-1H-1,2,3-triazol-1-yl)methyl)-1,3,4-thiadiazol-2-yl)piperidin-3-amine]	> 5000	≤ 50	> 5000
COc1cc(-c2cn(Cc3ccc(N4CCC[C@@H](NCC5CCC5)C4)nc3)nn2)c2cn[nH]c2c1 [Compound 040, (R)-N-(cyclobutylmethyl)-1-(5-((4-(6-methoxy-1H-indazol-4-yl)-1H-1,2,3-triazol-1-yl)methyl)pyridin-2-yl)piperidin-3-amine]	≤ 500	≤ 50	≤ 500
COc1cc(-c2cn(Cc3ccc(N4CCC[C@@H](NCC5CCC5)C4)cn3)nn2)c2cn[nH]c2c1 [Compound 042, (R)-N-(cyclobutylmethyl)-1-(6-((4-(6-methoxy-1H-indazol-4-yl)-1H-1,2,3-triazol-1-yl)methyl)pyridin-3-yl)piperidin-3-amine]	≤ 500	≤ 50	≤ 500
COc1cc(-c2cn(Cc3cnc(N4CCCC(NCC5CCC5)C4)cn3)nn2)c2cn[nH]c2c1 (stereo not drawn) [Compound 047, N-(cyclobutylmethyl)-1-(5-((4-(6-methoxy-1H-indazol-4-yl)-1H-1,2,3-triazol-1-yl)methyl)pyrazin-2-yl)piperidin-3-amine]	> 5000	≤ 50	500 to 5000
COc1cncc(-c2cn(Cc3ccc(N4C[C@@H](F)C[C@@H](NCC5CCC5)C4)nn3)nn2)c1 [Compound 056, (3R,5S)-N-(cyclobutylmethyl)-5-fluoro-1-(6-((4-(5-methoxypyridin-3-yl)-1H-1,2,3-triazol-1-yl)methyl)pyridazin-3-yl)piperidin-3-amine]	> 5000	≤ 50	> 5000
Clc1cc(-c2cn(Cc3ccc(N4CCC[C@@H](NCC5CCC5)C4)nn3)nn2)c2cn[nH]c2c1 [Compound 057, (R)-1-(6-((4-(6-chloro-1H-indazol-4-yl)-1H-1,2,3-triazol-1-yl)methyl)pyridazin-3-yl)-N-(cyclobutylmethyl)piperidin-3-amine]	500 to 5000	≤ 50	500 to 5000
O=C(NCc1ccc(N2CCC[C@@H](NCC3CCC3)C2)cn1)c1cc(=O)n2ccccc2n1 [Compound 060, (R)-N-((5-(3-((cyclobutylmethyl)amino)piperidin-1-yl)pyridin-2-yl)methyl)-4-oxo-4H-pyrido[1,2-a]pyrimidine-2-carboxamide]	> 5000	≤ 50	> 5000
COc1cncc(-c2cn(Cn3ccc(N4CCC[C@@H](NCC5CCC5)C4)cc3=O)nn2)c1 [Compound 063, (R)-4-(3-((cyclobutylmethyl)amino)piperidin-1-yl)-1-((4-(5-methoxypyridin-3-yl)-1H-1,2,3-triazol-1-yl)methyl)pyridin-2(1H)-one]	500 to 5000	≤ 50	500 to 5000
COc1cncc(-c2cn(C(C)n3ncc(N4CCC[C@@H](NCC5CCC5)C4)cc3=O)nn2)c1 (stereo partly drawn) [Compound 067, 5-((R)-3-((cyclobutylmethyl)amino)piperidin-1-yl)-2-(1-(4-(5-methoxypyridin-3-yl)-1H-1,2,3-triazol-1-yl)ethyl)pyridazin-3(2H)-one]	500 to 5000	≤ 50	500 to 5000
COc1cncc(-c2cn(Cc3ccc(N4CCC[C@@H](NCC5CCC5)C4)cc3)nn2)c1 [Compound 068, (R)-N-(cyclobutylmethyl)-1-(4-((4-(5-methoxypyridin-3-yl)-1H-1,2,3-triazol-1-yl)methyl)phenyl) piperidin-3-amine]	500 to 5000	≤ 50	500 to 5000
COc1cncc(-n2cc(Cn3ccc(N4CCC[C@@H](NCC5CCC5)C4)cc3=O)nn2)c1 [Compound 075, (R)-4-(3-((cyclobutylmethyl)amino)piperidin-1-yl)-1-((1-(5-methoxypyridin-3-yl)-1H-1,2,3-triazol-4-yl)methyl)pyridin-2(1H)-one]	500 to 5000	≤ 50	> 5000
COc1cncc(-c2nnc(Cn3ccc(N4CCC[C@@H](NCC5CCC5)C4)cc3=O)s2)c1 [Compound 077, (R)-4-(3-((cyclobutylmethyl)amino)piperidin-1-yl)-1-((5-(5-methoxypyridin-3-yl)-1,3,4-thiadiazol-2-yl)methyl)pyridin-2(1H)-one]	500 to 5000	≤ 50	500 to 5000
COc1cncc(-c2cn(Cc3ccc(N4CCC[C@@H](NCC5CCC5)C4)nn3)cn2)c1 [Compound 081, (R)-N-(cyclobutylmethyl)-1-(6-((4-(5-methoxypyridin-3-yl)-1H-imidazol-1-yl)methyl)pyridazin-3-yl)piperidin-3-amine]	≤ 500	≤ 50	500 to 5000
COc1cncc(-c2cn(C(C)(C)c3ccc(N4CCC[C@@H](NCC5CCC5)C4)nn3)nn2)c1 [Compound 082, (R)-N-(cyclobutylmethyl)-1-(6-(2-(4-(5-methoxypyridin-3-yl)-1H-1,2,3-triazol-1-yl)propan-2-yl)pyridazin-3-yl)piperidin-3-amine]	500 to 5000	≤ 50	500 to 5000
COc1cncc(-c2cn(Cc3ccc(N4CCC[C@@H](NCC5CCC5)C4)nc3)nn2)c1 [Compound 086, (R)-N-(cyclobutylmethyl)-1-(5-((4-(5-methoxypyridin-3-yl)-1H-1,2,3-triazol-1-yl)methyl)pyridin-2-yl)piperidin-3-amine]	500 to 5000	≤ 50	500 to 5000
COc1cncc(-c2cn(Cc3ccc(N4CCC[C@@H](NCC5CCC5)C4)cn3)nn2)c1 [Compound 087, (R)-N-(cyclobutylmethyl)-1-(6-((4-(5-methoxypyridin-3-yl)-1H-1,2,3-triazol-1-yl)methyl)pyridin-3-yl)piperidin-3-amine]	500 to 5000	≤ 50	500 to 5000
COc1cncc(-c2cc(Cn3ccc(N4CCC[C@@H](NCC5CCC5)C4)cc3=O)n[nH]2)c1 [Compound 095, (R)-4-(3-((cyclobutylmethyl)amino)piperidin-1-yl)-1-((5-(5-methoxypyridin-3-yl)-1H-pyrazol-3-yl)methyl)pyridin-2(1H)-one]	≤ 500	≤ 50	500 to 5000
COc1cncc(-c2ncc(Cn3ccc(N4CCC[C@@H](NCC5CCC5)C4)cc3=O)s2)c1 [Compound 097, (R)-4-(3-((cyclobutylmethyl)amino)piperidin-1-yl)-1-((2-(5-methoxypyridin-3-yl)thiazol-5-yl)methyl)pyridin-2(1H)-one]	≤ 500	≤ 50	≤ 500
COc1cncc(-n2cc(Cn3ccc(N4CCC[C@@H](NCC5CCC5)C4)cc3=O)cn2)c1 [Compound 107, (R)-4-(3-((cyclobutylmethyl)amino)piperidin-1-yl)-1-((1-(5-methoxypyridin-3-yl)-1H-pyrazol-4-yl)methyl)pyridin-2(1H)-one]	≤ 500	≤ 50	≤ 500
COc1cncc(-c2cn([C@H](C)n3ccc(N4CCC[C@@H](NCC5CCC5)C4)cc3=S)nn2)c1 [Compound 116, 4-((R)-3-((cyclobutylmethyl)amino)piperidin-1-yl)-1-((R)-1-(4-(5-methoxypyridin-3-yl)-1H-1,2,3-triazol-1-yl)ethyl)pyridine-2(1H)-thione]	≤ 500	≤ 50	≤ 500
COc1cc(-c2cn(Cc3ccc(N4CCC[C@@H](NCC5CCC5)C4)cc3)nn2)c2cn[nH]c2c1 [Compound 123, (R)-N-(cyclobutylmethyl)-1-(4-((4-(6-methoxy-1H-indazol-4-yl)-1-1,2,3-triazol-1-yl)methyl)phenyl)piperidin-3-amine]	≤ 500	≤ 50	≤ 500
COc1cncc(-c2cn(C(C)n3ccc(N4CCC[C@@H](NCC5CCC5)C4)c(F)c3=O)nn2)c1 (stereo partly drawn) [Compound 126, 4-((R)-3-((cyclobutylmethyl)amino)piperidin-1-yl)-3-fluoro-1-(1-(4-(5-methoxypyridin-3-yl)-1H-1,2,3-triazol-1-yl)ethyl)pyridin-2(1H)-one]	500 to 5000	≤ 50	> 5000
